Format in all cases: functional, organism-based
One assay concerns Escherichia coli. In words: Antimicrobial activity against Escherichia coli DMS 10290 at 5 and 10 ug after 24 hrs by agar diffusion method.
A further assay concerns Saccharomyces cerevisiae. In words: Antimicrobial activity against Saccharomyces cerevisiae DMS 1333 at 5 and 10 ug after 24 hrs by agar diffusion method. Background: In agar diffusion tests the substance spreads into inoculated agar from a disc or well.
For a further assay, the system named is Bacillus subtilis. In words: Antimicrobial activity against Bacillus subtilis DMS 2109 at 5 and 10 ug after 24 hrs by agar diffusion method.

Drawing on ChEMBL document CHEMBL1158887, “Novel chromone derivatives from the fungus Aspergillus versicolor isolated from the marine sponge Xestospongia exigua” (J Nat Prod, 2003), this text covers Activity for 3 compounds.

Structures are written as SMILES. Calls of active or inactive are those of the source. No cut-off for these calls is given here.

As to `COC1OC(C)=Cc2ccc3c(=O)c(C)c(C)oc3c21` (stereo not drawn), the result in the assay on Escherichia coli, with Saccharomyces cerevisiae and in the assay with Bacillus subtilis was inactive.

`Cc1cc2ccc3c(=O)c(C)c(C)oc3c2cn1`: the outcome with Escherichia coli and with Saccharomyces cerevisiae was inactive.

As to `COC1(C)Cc2ccc3c(=O)c(C)c(C)oc3c2CO1` (stereo not drawn), the outcome in the assay with Escherichia coli, in the assay with Saccharomyces cerevisiae and in the assay on Bacillus subtilis was inactive.
